Molecules are shown by their SMILES. pKi: −log10 of the molar value. Structures can show the parent of a compound that is named as a salt.

Holding throughout (test): CA Inhibition Assay
Common to all, as to conditions: pH 7.4

The target in assay [1] is Carbonic anhydrase 4 (Homo sapiens, UniProt P22748).
Assay [2] addresses Carbonic anhydrase 1 (Homo sapiens, UniProt P00915).
The target of assay [3] is Carbonic anhydrase 6 (Homo sapiens, UniProt P23280).
In assay [4] the target is Carbonic anhydrase 2 (Homo sapiens, UniProt P00918).

Sequence of Carbonic anhydrase 6 (P23280 whole entry): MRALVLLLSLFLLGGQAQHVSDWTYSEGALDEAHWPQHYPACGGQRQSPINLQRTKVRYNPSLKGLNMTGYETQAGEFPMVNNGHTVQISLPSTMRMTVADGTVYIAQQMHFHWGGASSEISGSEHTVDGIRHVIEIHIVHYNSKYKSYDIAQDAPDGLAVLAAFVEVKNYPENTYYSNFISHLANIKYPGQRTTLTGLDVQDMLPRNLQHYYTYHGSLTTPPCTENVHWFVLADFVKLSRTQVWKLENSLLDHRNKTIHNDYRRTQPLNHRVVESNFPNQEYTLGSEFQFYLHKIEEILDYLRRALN
Sequence of Carbonic anhydrase 1 (P00915 whole entry): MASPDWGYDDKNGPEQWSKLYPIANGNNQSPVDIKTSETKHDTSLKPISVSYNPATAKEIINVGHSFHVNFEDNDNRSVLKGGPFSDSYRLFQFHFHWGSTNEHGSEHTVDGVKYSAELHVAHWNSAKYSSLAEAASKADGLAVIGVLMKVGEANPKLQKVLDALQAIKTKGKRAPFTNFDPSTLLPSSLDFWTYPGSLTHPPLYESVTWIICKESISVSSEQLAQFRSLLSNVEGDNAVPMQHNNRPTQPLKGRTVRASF
Sequence of Carbonic anhydrase 4 (P22748 whole entry): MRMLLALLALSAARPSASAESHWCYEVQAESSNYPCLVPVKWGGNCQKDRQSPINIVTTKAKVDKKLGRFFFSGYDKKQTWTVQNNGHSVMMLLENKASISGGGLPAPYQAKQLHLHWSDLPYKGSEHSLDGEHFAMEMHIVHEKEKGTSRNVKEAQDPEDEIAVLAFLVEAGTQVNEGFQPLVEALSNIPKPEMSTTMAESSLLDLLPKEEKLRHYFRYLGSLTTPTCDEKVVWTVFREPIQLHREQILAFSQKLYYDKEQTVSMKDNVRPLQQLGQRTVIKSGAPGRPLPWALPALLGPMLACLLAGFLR

As for `O[C@@H]1C2C[C@H](O)C1c1ccccc12` (stereo partly drawn) [9(R(S))-Hydroxy-1,2,3,4-tetrahydro-1,4-methanonaphthalen-2(R(S))-diol (9)], the pKi was 3.63 in assay [1], 3.85 in assay [2], 3.56 in assay [3] and 4.63 in assay [4].
In the same order, the values of `O=S(=O)(O)O[C@H]1CC2c3ccccc3C1[C@@H]2O` (stereo partly drawn) [9(R(S))-Hydroxy-1,2,3,4-tetrahydro-1,4-methanonaphthalen-2(R(S))-yl sulfate (8)] are 3.70, 4.49, 3.66 and 4.98.
In the same order, the values of `O[C@@H]1CCCC[C@H]1O` [(1R,2R)-trans-1,2-cyclohexanediol] are 4.73, 3.87, 4.12 and 5.33.
On to `O=S(=O)(O)O[C@@H]1CC=CC[C@H]1O` [trans-(1R(S),6R(S))-6-Hydroxycyclohex-3-enyl hydrogen sulfate (4)], for which the negative logarithm of the Ki (pKi) in assay [1] was 4.86; in assay [2], 4.38; in assay [3], 4.03; in assay [4] it was 5.67.
Taken in the same sequence, the figures for `O=S(=O)(O)O[C@@H]1CC/C=C\CC[C@H]1O` [trans-(1R(S),8R(S),Z)-8-Hydroxycyclooct-4-enyl hydrogen sulfate (6)] were 4.79, 4.11, 3.91 and 5.27.
In the case of `O[C@@H]1Cc2ccccc2C[C@H]1O` [trans-(2R(S),3R(S))-1,2,3,4-Tetrahydronaphthalene-2,3-diol (11)], the negative logarithm of the Ki (pKi) in assay [1] is 4.11; in assay [2], 3.37; in assay [3] it was 3.90; in assay [4], 4.49.

The values are drawn from BindingDB's records for doi:10.3109/14756366.2011.629198 (Dumlupinar University, 2012).
